These compounds were tested against T1, human Oxytocin (OTR) receptor (Homo sapiens, UniProt P30559) (assay: Calcium flux assay (FLIPR), agonist mode, CHO cells expressing human OTR). Conditions: calcium flux in CHO cells expressing human OTR, read-out: hEC50.
T1 construct: expressed in transfected cells
T1 sequence (P30559 1-389): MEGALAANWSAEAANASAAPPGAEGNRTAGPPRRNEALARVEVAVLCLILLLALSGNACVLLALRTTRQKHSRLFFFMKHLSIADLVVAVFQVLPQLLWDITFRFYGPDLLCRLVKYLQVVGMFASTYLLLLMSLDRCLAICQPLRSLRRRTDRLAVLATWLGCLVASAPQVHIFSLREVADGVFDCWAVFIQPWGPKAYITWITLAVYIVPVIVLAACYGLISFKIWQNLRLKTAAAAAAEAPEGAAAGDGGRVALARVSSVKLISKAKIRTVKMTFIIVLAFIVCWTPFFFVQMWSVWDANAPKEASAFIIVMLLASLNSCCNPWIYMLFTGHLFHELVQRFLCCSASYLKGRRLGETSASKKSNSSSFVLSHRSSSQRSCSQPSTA
Format: cell-based
Excerpt: Chinese Hamster Ovary (CHO) cells were transfected with expression plasmids encoding either the human V1a, the human Oxytocin (OTR) or the humanV2 receptor, the latter in combination with the chimeric Gqs5 G protein to redirect the signal to Calcium flux. Stable cells were cloned by limiting dilution to yield monoclonal cell lines expressing either human V1a, human V2+Gqs5 or human OTR receptors and selected based on functional responses detected on a fluorometric imaging plate reader (FLIPR) detecting Calcium flux in the cell after receptor activation. The stable cell lines were grown in F-12 K Nutrient Mixture (Kaighns Modification), containing 10% foetal bovine serum (FBS), 1% penicillin-streptomycin, 1% L-[…], 200 ug/ml Geneticin at 37° C. in a 10% CO2 incubator at 95% humidity.
Calcium Flux Assays Using Fluorescent Imaging (Fluorometric Imaging Plate Reader, FLIPR)
On the afternoon before the assay, cells were plated at a density of 50,000 cells/well into black 96 well plates with clear bottoms to allow cell inspection and fluorescence measurements from the bottom of each well. The density of cells was sufficient to yield a confluent monolayer the next day. Hanks balanced salt solution, without phenol red, containing 20 mM HEPES (pH 7.3) and 2.5 mM probenecid (assay buffer) was prepared fresh for each experiment. Compound dilutions were made using a Beckman Biomek 2000 laboratory automation workstation, in assay buffer containing 1% DMSO. The dye-loading buffer consisted of a final concentration of 2 μM Fluo-4-AM (dissolved in DMSO and pluronic acid) in assay buffer. The existing culture media was removed from the wells and 100 μl of the dye-loading buffer was added to each well and incubated for approximately 60 min at 37° C. in a 5% CO2 incubator at 95% humidity. Once dye-loaded, the cells were washed thoroughly on an Embla cell washer with the assay buffer to remove any unincorporated dye. Exactly 100 μl assay buffer was left in each well.
Each 96 well plate containing dye-loaded cells was placed into the FLIPR machine and the laser intensity set to a suitable level to detect low basal fluorescence. To test compounds as agonists, 25 μl diluted compound was added to the plate 10 seconds into the fluorescent measurements and fluorescent response was recorded for 5 minutes. The fluorescence data was normalized to the endogenous full agonist dose-response set at 100% for the maximum response and 0% for the minimum. Each agonist concentration-response curve was constructed using a four parameter logistic equation with Microsoft Excel XLFit as follows: Y=Minimum+((Maximum−Minimum)/(1+10^(LogEC50-X)nH)), where y is the % normalized fluorescence, minimum is the minimum y, maximum is the maximum y, log EC50 is the log10 concentration which produces 50% of the maximum induced fluorescence, x is the log10 of the concentration of the agonist compound and H is the slope of the curve (the Hill Coefficient). The maximum value gives the efficacy of the agonist test compound in percentage. The concentration of agonist that produced a half-maximal response is represented by the EC50 value, the logarithm of which yielded the pEC50 value.

Compound | EC50
O=S(=O)(Nc1ccnn1-c1ccccn1)c1ccc(Cl)cc1 [Example 1, 4-Chloro-N-(2-pyridin-2-yl-2H-pyrazol-3-yl)-benzenesulfonamide] | 19 nM
O=S(=O)(Nc1ccnn1-c1ccccn1)c1ccc(C(F)(F)F)cc1 [Example 2, N-(2-Pyridin-2-yl-2H-pyrazol-3-yl)-4-trifluoromethyl-benzenesulfonamide] | 8 nM
O=S(=O)(Nc1ccnn1-c1ccccn1)c1ccc(C(F)(F)F)cc1Cl [Example 5, 2-Chloro-N-(2-pyridin-2-yl-2H-pyrazol-3-yl)-4-trifluoromethyl-benzenesulfonamide] | 91 nM
O=S(=O)(Nc1ccnn1-c1ccccn1)c1ccc(OC(F)F)cc1 [Example 6, 4-Difluoromethoxy-N-(2-pyridin-2-yl-2H-pyrazol-3-yl)-benzenesulfonamide] | 107 nM
O=S(=O)(Nc1ccnn1-c1ccc(F)cc1)c1ccc(Cl)cc1 [Example 7, 4-Chloro-N-[2-(4-fluoro-phenyl)-2H-pyrazol-3-yl]-benzenesulfonamide] | 2460 nM
N#Cc1ccc(S(=O)(=O)Nc2ccnn2-c2ccccn2)cc1 [Example 8, 4-Cyano-N-(2-pyridin-2-yl-2H-pyrazol-3-yl)-benzenesulfonamide] | 81 nM
O=S(=O)(Nc1ccnn1-c1ncccn1)c1ccc(C(F)(F)F)cc1 [Example 12, N-(2-Pyrimidin-2-yl-2H-pyrazol-3-yl)-4-trifluoromethyl-benzenesulfonamide] | 1800 nM
O=S(=O)(Nc1ccnn1-c1ccccn1)c1ccc(Cl)cc1Cl [Example 13, 2,4-Dichloro-N-(2-pyridin-2-yl-2H-pyrazol-3-yl)-benzenesulfonamide] | 17 nM
CC(F)c1ccc(S(=O)(=O)Nc2ccnn2-c2ccccn2)cc1 (stereo not shown) [Example 15, 4-(1-Fluoro-ethyl)-N-(2-pyridin-2-yl-2H-pyrazol-3-yl)-benzenesulfonamide] | 84 nM
Cc1ccnc(-n2nccc2NS(=O)(=O)c2ccc(C(F)(F)F)cc2)c1 [Example 16, N-[2-(4-Methyl-pyridin-2-yl)-2H-pyrazol-3-yl]-4-trifluoromethyl-benzenesulfonamide] | 17 nM
Cc1ccnc(-n2nccc2NS(=O)(=O)c2ccc(C#N)cc2)c1 [Example 19, 4-Cyano-N-[2-(4-methyl-pyridin-2-yl)-2H-pyrazol-3-yl]-benzenesulfonamide] | 63 nM
O=S(=O)(Nc1ccnn1-c1ccccn1)c1ccc(SC(F)(F)F)cc1 [Example 20, N-(2-Pyridin-2-yl-2H-pyrazol-3-yl)-4-trifluoromethylsulfanyl-benzenesulfonamide] | 47 nM
O=S(=O)(Nc1ccnn1-c1ccnc(C(F)(F)F)n1)c1ccc(C(F)(F)F)cc1 [Example 21, 4-Trifluoromethyl-N-[2-(2-trifluoromethyl-pyrimidin-4-yl)-2H-pyrazol-3-yl]-benzenesulfonamide] | 1570 nM
O=S(=O)(Nc1ccnn1-c1ccccn1)c1ccc(C(F)(F)F)cc1F [Example 22, 2-Fluoro-N-(2-pyridin-2-yl-2H-pyrazol-3-yl)-4-trifluoromethyl-benzenesulfonamide] | 333 nM
O=S(=O)(Nc1ccnn1-c1ccccn1)c1ccc(S(=O)(=O)C(F)(F)F)cc1 [Example 23, N-(2-Pyridin-2-yl-2H-pyrazol-3-yl)-4-trifluoromethanesulfonyl-benzenesulfonamide] | 753 nM
O=S(=O)(Nc1ccnn1-c1ccccn1)c1ccc(C(F)(F)F)c(F)c1 [Example 24, 3-Fluoro-N-(2-pyridin-2-yl-2H-pyrazol-3-yl)-4-trifluoromethyl-benzenesulfonamide] | 799 nM
Cc1csc(-n2nccc2NS(=O)(=O)c2ccc(Cl)cc2F)n1 [Example 26, 4-Chloro-2-fluoro-N-[2-(4-methyl-thiazol-2-yl)-2H-pyrazol-3-yl]-benzenesulfonamide] | 150 nM

The remaining lines, values ahead:

EC50 | Compound
16 nM | CCc1ccc(S(=O)(=O)Nc2ccnn2-c2ccccn2)cc1 [Example 3, 4-Ethyl-N-(2-pyridin-2-yl-2H-pyrazol-3-yl)-benzenesulfonamide]
34 nM | CCCc1ccc(S(=O)(=O)Nc2ccnn2-c2ccccn2)cc1 [Example 4, 4-Propyl-N-(2-pyridin-2-yl-2H-pyrazol-3-yl)-benzenesulfonamide]
520 nM | Cc1csc(-n2nccc2NS(=O)(=O)c2ccc(C(F)(F)F)cc2)n1 [Example 9, N-[2-(4-Methyl-thiazol-2-yl)-2H-pyrazol-3-yl]-4-trifluoromethyl-benzenesulfonamide]
163 nM | Cc1csc(-n2nccc2NS(=O)(=O)c2ccc(Cl)cc2)n1 [Example 10, 4-Chloro-N-[2-(4-methyl-thiazol-2-yl)-2H-pyrazol-3-yl]-benzenesulfonamide]
113 nM | CCc1ccc(S(=O)(=O)Nc2ccnn2-c2nc(C)cs2)cc1 [Example 11, 4-Ethyl-N-[2-(4-methyl-thiazol-2-yl)-2H-pyrazol-3-yl]-benzenesulfonamide]
16 nM | Cc1ccnc(-n2nccc2NS(=O)(=O)c2ccc(Cl)cc2)c1 [Example 17, 4-Chloro-N-[2-(4-methyl-pyridin-2-yl)-2H-pyrazol-3-yl]-benzenesulfonamide]
20 nM | CCc1ccc(S(=O)(=O)Nc2ccnn2-c2cc(C)ccn2)cc1 [Example 18, 4-Ethyl-N-[2-(4-methyl-pyridin-2-yl)-2H-pyrazol-3-yl]-benzenesulfonamide]
1570 nM | CCc1ccc(S(=O)(=O)Nc2ccnn2-c2nc(C3CC3)ns2)cc1 [Example 25, N-[2-(3-Cyclopropyl-[1,2,4]thiadiazol-5-yl)-2H-pyrazol-3-yl]-4-ethyl-benzenesulfonamide]
